The term IC50 denotes the point on the concentration scale where inhibition reaches its midpoint.

Active and inactive are the calls of the source. No rule for the calls is given here.

We go through five molecules from PubChem BioAssay AID1117344.

The test system of the assay is NCI-H716 cells, GLP-1 secretion. The assay is described as follows: potency on glucagon-like peptide-1 release, NCI-H716 cell line, dose-response curve, half-maximal inhibitory concentration (AID 1117344).
`CC(=O)[O][Hg][c]1ccccc1`: the IC50 was 9.57 µM (inactive).

`CCCCCCCCCCCC(=O)[O][Sn]([CH2]CCC)([CH2]CCC)[O]C(=O)CCCCCCCCCCC`: the IC50 was > 40 µM (inactive).

For the molecule `CCCCCCCCCCCCCC[N+](C)(C)C`, the IC50 was 18.6 µM (inactive).

For `OCCN1CCN(CC/C=C2/c3ccccc3Sc3ccc(C(F)(F)F)cc32)CC1`, the IC50 was 32.2 µM (inactive).

Consider `Cc1ccc([N+](=O)[O-])[c]2c1[O][Hg]2`, for which the IC50 is 9.87 µM (inactive).
